From paper PMC8374649, “IBI362 (LY3305677), a weekly-dose GLP-1 and glucagon receptor dual agonist, in Chinese adults with overweight or obesity: A randomised, placebo-controlled, multiple ascending dose phase 1b study” (EClinicalMedicine, 2021)

Test system: Chinese adults with overweight or obesity
Experiment: Safety and tolerability (treatment emergent adverse events), multiple ascending dose phase 1b study
Format: in vivo, human
Experimental: The study included a 3-week screening period, a 12-week treatment period and an 8-week safety follow-up period. During the 12-week treatment period, the dose of IBI362 or placebo was escalated within each cohort according to one of the three dose-escalation schedules (Fig. S1). The dose-escalation regimen for the 3.0 mg cohort was 1.0 mg for 4 weeks, followed by 2.0 mg for 4 weeks and then 3.0 mg for the final 4 weeks. The dose-escalation regimen for the 4.5 mg cohort was 1.5 mg for 4 weeks, followed by 3.0 mg for 4 weeks and then 4.5 mg for the final 4 weeks. The dose-escalation regimen for the 6.0 mg cohort was 2.0 mg for 4 weeks, followed by 4.0 mg for 4 weeks and then 6.0 mg for the final 4 weeks. The 6.0 mg cohort started dosing after tolerability evaluation of 1.5 mg dosing in the 4.5 mg cohort. The internal unblinded safety monitoring group was responsible for the safety monitoring. All treatments were subcutaneously administered once a week. Investigators and authorized study personnel in each centre recorded the study data into the electronic case report forms (eCRFs), which were reviewed and validated by clinical research associates (CRAs). The data in the eCRFs were submitted to the electronic data capture (EDC) database. HbA1c, fasting plasma glucose and fasting insulin tests were performed in a central lab (Wuxi AppTec Inc.).
The primary endpoints of the study were safety and tolerability of IBI362. Adverse events (AEs) were categorised according to the Medical Dictionary for Regulatory Activities system organ class and preferred terms. Treatment emergent adverse events (TEAEs) and serious adverse events were monitored in all participants throughout the treatment period and the safety follow-up period. The severity of the AEs (mild, moderate or severe) and the association between an AE and the study drug was assessed by investigators based on pre-specified criteria.
Safety analyses were done in the safety population (defined as all participants who received at least one dose of the study treatment). Pharmacokinetic analyses were done in the pharmacokinetic population (defined as all participants who received at least one dose of IBI362 and had at least one valid plasma concentration assessment). Pharmacodynamic analyses were done in the pharmacodynamic population (defined as all participants who received at least one dose of the study treatment and had baseline and at least one valid assessment). Efficacy analyses were done in the efficacy population (defined as all participants who received at least one dose of the study treatment and had at least one post-baseline assessment).

[1] = 3.0 mg cohort (1.0-2.0-3.0 mg sc once weekly, 4 weeks each), n = 8
[2] = 4.5 mg cohort (1.5-3.0-4.5 mg sc once weekly, 4 weeks each), n = 8
[3] = 6.0 mg cohort (2.0-4.0-6.0 mg sc once weekly, 4 weeks each), n = 8

CC(C)C[C@H](NC(=O)[C@H](CC(C)C)NC(=O)[C@H](Cc1c[nH]c2ccccc12)NC(=O)[C@H](CCC(=O)O)NC(=O)[C@@H](NC(=O)[C@H](Cc1ccccc1)NC(=O)[C@H](CCC(=O)O)NC(=O)[C@H](CCCCNC(=O)COCCOCCNC(=O)COCCOCCNC(=O)CC[C@H](NC(=O)CCCCCCCCCCCCCCCCCCC(=O)O)C(=O)O)NC(=O)[C@H](C)NC(=O)[C@H](CCCCN)NC(=O)[C@H](CCCCN)NC(=O)[C@H](CCC(=O)O)NC(=O)[C@H](CC(=O)O)NC(=O)[C@H](CC(C)C)NC(=O)[C@H](Cc1ccc(O)cc1)NC(=O)[C@H](CCCCN)NC(=O)[C@H](CO)NC(=O)[C@H](Cc1ccc(O)cc1)NC(=O)[C@H](CC(=O)O)NC(=O)[C@H](CO)NC(=O)[C@@H](NC(=O)[C@H](Cc1ccccc1)NC(=O)[C@@H](NC(=O)CNC(=O)[C@H](CCC(N)=O)NC(=O)C(C)(C)NC(=O)[C@@H](N)Cc1c[nH]cn1)[C@@H](C)O)[C@@H](C)O)C(C)C)C(=O)N[C@@H](CCC(=O)O)C(=O)NCC(=O)NCC(=O)N1CCC[C@H]1C(=O)N[C@@H](CO)C(=O)N[C@@H](CO)C(=O)NCC(N)=O [IBI362]
Abdominal distension [1]: 1 (12.5) n (%) | Abdominal pain [1]: 0 n (%) | Atrioventricular block first degree [1]: 1 (12.5) n (%) | Back pain [1]: 1 (12.5) n (%) | Blood glucose increased [1]: 0 n (%) | Calculus urinary [1]: 1 (12.5) n (%) | Cardiac disorders (system organ class) [1]: 1 (12.5) n (%) | Constipation [1]: 1 (12.5) n (%) | Decreased appetite [1]: 1 (12.5) n (%) | Diarrhea [1]: 0 n (%) | Dry mouth [1]: 0 n (%) | Dyslipidaemia [1]: 0 n (%) | Dysmenorrhoea [1]: 1 (12.5) n (%) | Dyspepsia [1]: 0 n (%) | Fatigue [1]: 0 n (%) | Folliculitis [1]: 0 n (%) | Gastrointestinal AE, Mild [1]: 2 (25.0) n (%) | Gastrointestinal AE, Moderate [1]: 1 (12.5) n (%) | Gastrointestinal disorders (system organ class) [1]: 4 (50.0) n (%) | Gastrointestinal inflammation [1]: 1 (12.5) n (%) | General disorders and administration site conditions (system organ class) [1]: 1 (12.5) n (%) | Hiccups [1]: 0 n (%) | Hyperlipidaemia [1]: 0 n (%) | Hyperuricaemia [1]: 0 n (%) | Hypoglycaemia event [1]: 0 n (%) | Infections and infestations (system organ class) [1]: 4 (50.0) n (%) | Injury, poisoning and procedural complications (system organ class) [1]: 1 (12.5) n (%) | Investigations (system organ class) [1]: 0 n (%) | Menstruation irregular [1]: 0 n (%) | Mental fatigue [1]: 0 n (%) | Metabolism and nutrition disorders (system organ class) [1]: 1 (12.5) n (%) | Mouth ulceration [1]: 1 (12.5) n (%) | Musculoskeletal and connective tissue disorders (system organ class) [1]: 1 (12.5) n (%) | Myocardial ischemia [1]: 0 n (%) | Nasopharyngitis [1]: 1 (12.5) n (%) | Nausea [1]: 0 n (%) | Neutrophil count increased [1]: 0 n (%) | Oropharyngeal pain [1]: 0 n (%) | Proteinuria [1]: 0 n (%) | Psychiatric disorders (system organ class) [1]: 0 n (%) | Pyrexia [1]: 1 (12.5) n (%) | Renal and urinary disorders (system organ class) [1]: 1 (12.5) n (%) | Reproductive system and breast disorders (system organ class) [1]: 1 (12.5) n (%) | Respiratory, thoracic and mediastinal disorders (system organ class) [1]: 0 n (%) | Serious adverse event [1]: 0 n (%) | Sinus tachycardia [1]: 0 n (%) | Skin and subcutaneous tissue disorders (system organ class) [1]: 1 (12.5) n (%) | Soft tissue injury [1]: 1 (12.5) n (%) | Starvation [1]: 0 n (%) | TEAE (individuals with ≥ 1 TEAE) [1]: 6 (75.0) n (%) | Thermal burn [1]: 0 n (%) | Tonsillitis [1]: 1 (12.5) n (%) | Treatment-related AE [1]: 3 (37.5) n (%) | Upper respiratory tract infection [1]: 2 (25.0) n (%) | Urticaria [1]: 1 (12.5) n (%) | Vomiting [1]: 1 (12.5) n (%) | White blood cell count increased [1]: 0 n (%) | Abdominal distension [2]: 0 n (%) | Abdominal pain [2]: 2 (25.0) n (%) | Atrioventricular block first degree [2]: 0 n (%) | Back pain [2]: 0 n (%) | Blood glucose increased [2]: 0 n (%) | Calculus urinary [2]: 0 n (%) | Cardiac disorders (system organ class) [2]: 2 (25.0) n (%) | Constipation [2]: 0 n (%) | Decreased appetite [2]: 5 (62.5) n (%) | Diarrhea [2]: 3 (37.5) n (%) | Dry mouth [2]: 2 (25.0) n (%) | Dyslipidaemia [2]: 1 (12.5) n (%) | Dysmenorrhoea [2]: 0 n (%) | Dyspepsia [2]: 0 n (%) | Fatigue [2]: 1 (12.5) n (%) | Folliculitis [2]: 0 n (%) | Gastrointestinal AE [2]: 5 (62.5) n (%) | Gastrointestinal AE, Mild [2]: 5 (62.5) n (%) | Gastrointestinal AE, Moderate [2]: 0 n (%) | Gastrointestinal disorders (system organ class) [2]: 5 (62.5) n (%) | Gastrointestinal inflammation [2]: 0 n (%) | General disorders and administration site conditions (system organ class) [2]: 1 (12.5) n (%) | Hiccups [2]: 0 n (%) | Hyperlipidaemia [2]: 0 n (%) | Hyperuricaemia [2]: 1 (12.5) n (%) | Hypoglycaemia event [2]: 0 n (%) | Infections and infestations (system organ class) [2]: 2 (25.0) n (%) | Injury, poisoning and procedural complications (system organ class) [2]: 1 (12.5) n (%) | Investigations (system organ class) [2]: 1 (12.5) n (%) | Menstruation irregular [2]: 0 n (%) | Mental fatigue [2]: 1 (12.5) n (%) | Metabolism and nutrition disorders (system organ class) [2]: 6 (75.0) n (%) | Mouth ulceration [2]: 0 n (%) | Musculoskeletal and connective tissue disorders (system organ class) [2]: 0 n (%) | Myocardial ischemia [2]: 1 (12.5) n (%) | Nasopharyngitis [2]: 0 n (%) | Nausea [2]: 3 (37.5) n (%) | Neutrophil count increased [2]: 1 (12.5) n (%) | Oropharyngeal pain [2]: 1 (12.5) n (%) | Proteinuria [2]: 2 (25.0) n (%) | Psychiatric disorders (system organ class) [2]: 1 (12.5) n (%) | Pyrexia [2]: 0 n (%) | Renal and urinary disorders (system organ class) [2]: 2 (25.0) n (%) | Reproductive system and breast disorders (system organ class) [2]: 0 n (%) | Respiratory, thoracic and mediastinal disorders (system organ class) [2]: 1 (12.5) n (%) | Serious adverse event [2]: 0 n (%) | Sinus tachycardia [2]: 1 (12.5) n (%) | Skin and subcutaneous tissue disorders (system organ class) [2]: 0 n (%) | Soft tissue injury [2]: 0 n (%) | Starvation [2]: 0 n (%) | TEAE (individuals with ≥ 1 TEAE) [2]: 7 (87.5) n (%) | Thermal burn [2]: 1 (12.5) n (%) | Tonsillitis [2]: 0 n (%) | Treatment-related AE [2]: 7 (87.5) n (%) | Upper respiratory tract infection [2]: 2 (25.0) n (%) | Urticaria [2]: 0 n (%) | Vomiting [2]: 0 n (%) | White blood cell count increased [2]: 1 (12.5) n (%) | Abdominal distension [3]: 0 n (%) | Abdominal pain [3]: 0 n (%) | Atrioventricular block first degree [3]: 0 n (%) | Back pain [3]: 0 n (%) | Blood glucose increased [3]: 0 n (%) | Calculus urinary [3]: 0 n (%) | Cardiac disorders (system organ class) [3]: 0 n (%) | Constipation [3]: 0 n (%) | Decreased appetite [3]: 1 (12.5) n (%) | Diarrhea [3]: 3 (37.5) n (%) | Dry mouth [3]: 0 n (%) | Dyslipidaemia [3]: 0 n (%) | Dysmenorrhoea [3]: 0 n (%) | Dyspepsia [3]: 1 (12.5) n (%) | Fatigue [3]: 0 n (%) | Folliculitis [3]: 1 (12.5) n (%) | Gastrointestinal AE [3]: 4 (50.0) n (%) | Gastrointestinal AE, Mild [3]: 3 (37.5) n (%) | Gastrointestinal AE, Moderate [3]: 1 (12.5) n (%) | Gastrointestinal disorders (system organ class) [3]: 4 (50.0) n (%) | Gastrointestinal inflammation [3]: 0 n (%) | General disorders and administration site conditions (system organ class) [3]: 0 n (%) | Hiccups [3]: 1 (12.5) n (%) | Hyperlipidaemia [3]: 0 n (%) | Hyperuricaemia [3]: 1 (12.5) n (%) | Hypoglycaemia event [3]: 0 n (%) | Infections and infestations (system organ class) [3]: 1 (12.5) n (%) | Injury, poisoning and procedural complications (system organ class) [3]: 0 n (%) | Investigations (system organ class) [3]: 0 n (%) | Menstruation irregular [3]: 0 n (%) | Mental fatigue [3]: 0 n (%) | Metabolism and nutrition disorders (system organ class) [3]: 3 (37.5) n (%) | Mouth ulceration [3]: 0 n (%) | Musculoskeletal and connective tissue disorders (system organ class) [3]: 0 n (%) | Myocardial ischemia [3]: 0 n (%) | Nasopharyngitis [3]: 0 n (%) | Nausea [3]: 1 (12.5) n (%) | Neutrophil count increased [3]: 0 n (%) | Oropharyngeal pain [3]: 0 n (%) | Proteinuria [3]: 0 n (%) | Psychiatric disorders (system organ class) [3]: 0 n (%) | Pyrexia [3]: 0 n (%) | Renal and urinary disorders (system organ class) [3]: 0 n (%) | Reproductive system and breast disorders (system organ class) [3]: 0 n (%) | Respiratory, thoracic and mediastinal disorders (system organ class) [3]: 1 (12.5) n (%) | Serious adverse event [3]: 0 n (%) | Sinus tachycardia [3]: 0 n (%) | Skin and subcutaneous tissue disorders (system organ class) [3]: 0 n (%) | Soft tissue injury [3]: 0 n (%) | Starvation [3]: 1 (12.5) n (%) | TEAE (individuals with ≥ 1 TEAE) [3]: 6 (75.0) n (%) | Thermal burn [3]: 0 n (%) | Tonsillitis [3]: 0 n (%) | Treatment-related AE [3]: 5 (62.5) n (%) | Upper respiratory tract infection [3]: 0 n (%) | Urticaria [3]: 0 n (%) | Vomiting [3]: 1 (12.5) n (%) | White blood cell count increased [3]: 0 n (%) | Magnitude of heart rate increase (12-lead ECG, first 6 weeks, more prominent later, especially 6.0 mg cohort, declining from week 9 (Fig. S3)): mild | Amylase, lipase and calcitonin levels (all IBI362 treatment groups (Fig S4)): increased in all IBI362 treatment groups but remained mostly within the normal reference range | Discontinuation of the study due to safety reason (all cohorts): No participant discontinued the study due to safety reason | Hypoglycaemia event or serious adverse event (all cohorts): No hypoglycaemia event or serious adverse event occurred | Investigator suspected pancreatitis (all cohorts): No investigator suspected pancreatitis was reported | Participants with at least one TEAE (all participants receiving IBI362 (n = 24), 19 participants): 79.2% | Nausea (all participants receiving IBI362 (n = 24), four participants): 16.7% | Decreased appetite (all participants receiving IBI362 (n = 24), seven participants): 29.2% | Diarrhea (all participants receiving IBI362 (n = 24), six participants): 25.0%
